Results on 88 molecules are retold here after a melting point compilation (Tetko et al.; mined from patent text by program, amines drawn as free bases though some values may be those of a salt).

`O=C(C1CCCCC1)N1CC(=O)N2CCCc3ccccc3C2C1` (stereo not drawn) gave a melting point of 187 to 190 °C. The figure for `Cc1c(C(=O)c2ccc(Cl)c(S(N)(=O)=O)c2)c2ccccc2n1C` is 247 to 249 °C; for `CN(Cc1cc(C(F)(F)F)cc(C(F)(F)F)c1)C(=O)c1cnc(CC#N)nc1-c1ccccc1` it is 114 to 116 °C. The molecule `O=C(NCCc1ccccc1)c1ccc(N2CCOCC2)nc1` had a melting point of 163 to 165 °C. `CC(C)(C)Nc1cc(Cl)nc(NC(C)(C)C)n1` gave a melting point of 128 to 130 °C. As to `CC(C)(C)C(O)c1ccc(C(=O)c2ccccc2)cc1` (stereo not drawn), the melting point is 103 to 105 °C. The molecule `COC(=O)[C@H](Cc1ccc(NC(=O)c2c(Cl)cccc2Cl)cc1)NC(=O)C1(CCNC(C)=O)CCCC1` gave a melting point of 190 to 194 °C. The figure for `COc1ccc(/C=C/c2cc(F)cc(F)c2)cc1` is 108 to 110 °C; for `CCOC(=O)C(C(=O)OC(C)C)=C1SC=CS1` it is 54 °C; for `O=C1C(Cc2ccccc2)C(C(F)(F)F)=Nc2ccccc2N1Cc1ccccc1` (stereo not drawn) it is 150 to 151 °C.

`O=S(=O)(NCCCCOc1ccc(-n2ccnc2)cc1)c1ccccc1` showed a melting point of 110 to 111 °C.

In turn, `Clc1cnnc(Cl)c1Cl` gave a melting point of 61 °C. Next, `ON=C1CCC2(O)C3Cc4ccc(O)c5c4C2(CCN3CC2CC2)C1O5` (stereo not drawn): 235 to 236 °C. Next, `O=C(NCCCCCCOc1ccccc1C(=O)Nc1ccc(C(=O)N2CCCCc3ccccc32)cc1)c1ccccc1`: 178 °C. The figure for `O=[N+]([O-])c1cnn(CC(O)CCl)n1` (stereo not drawn) is 38 to 38.5 °C; for `CC(C)Cc1nc[nH]n1` it is 71 to 73 °C. Regarding `O=C1CCN(Cc2cc([N+](=O)[O-])ccc2O)CC1C(c1ccccc1)c1ccccc1` (stereo not drawn), the melting point lay within 177 to 178 °C. In the case of `Nc1cc(-c2ccccc2)nc2ccccc12`, the melting point was in the range of 162 to 164 °C. Next, `Cc1nn(-c2c(Cl)cc(C(F)(F)F)cc2Cl)nc1-c1nc(C#N)c(C#N)[nH]1`: 228 to 229 °C. In turn, `CCOC(=O)[C@H]1C=C[C@H](c2ccccc2)n2c(=O)n(CCCl)c(=O)n21` (relative stereo) showed a melting point of 117 to 119 °C. The figure for `CC(=O)CCCc1c[nH]c2ccccc12` is 89 to 90 °C. The figure for `CC(C)C1CC(O)OC(C(C)C2CC(=O)C3C4C(O)C(O)C5C(O)C(O)CCC5(C)C4CCC23C)C1` (stereo not drawn) is 239 to 241 °C; for `CC(C)(c1ccc2ncccc2c1)n1nnc2ccc(-c3ccc(C(=O)NC4CC4)c(F)c3)nc21` it is 156 to 159 °C; for `CCOc1cc(C(=O)N2CCC(CCN3CCC(C(N)=O)(c4ccccc4)CC3)(c3ccc(OC)c(OC)c3)C2)cc(OCC)c1OCC` (stereo not drawn) it is 139 to 141 °C. The figure for `O=C(/C=C/c1ccc(C(F)(F)F)cc1)Nc1ccc2c(c1)NCC(CO)C2` (stereo not drawn) is 176 to 179 °C; for `CC(C)(C)C(=O)OCc1nc2cc3c(cc2c(=O)[nH]1)C(=O)CC3` it is 185 to 190 °C; for `CCOc1cc([C@@H](CCN(O)C(N)=O)N2Cc3cccc(NC(=O)C(C)C)c3C2=O)ccc1OC` it is 137 to 139 °C.

In the case of `OC1CSC(Oc2cncc(-c3ccnc(Cl)c3)c2)C(O)C1O` (stereo not drawn), the melting point amounted to 204 °C.

`CN1CC(C#CC2CC2)(C(F)(F)F)c2cc(Cl)ccc2NC1=O` (stereo not drawn) gave a melting point of 177 to 178 °C. Next, `Cn1c(=O)n(-c2cc(Cl)ccc2O)c2ccc(F)cc21`: 247 to 250 °C. Next, `COc1cc(C=O)cc2c1OC(C)(C)C2`: 58 to 59 °C; `C=CCCc1ccc(C(N)=O)c(O)n1`: 195 to 198 °C; `CC(C)(C)c1cc2c(n1-c1ccc(O)c(C(=O)O)c1)CCc1ccccc1-2`: 258 to 260 °C. The figure for `c1ccc(CCc2[nH]ncc2-c2ccncc2)cc1` is 125 to 131 °C. As to `O=C(C=CCl)c1cc(F)c(Cl)cc1Cl`, the melting point was in the range of 65 to 70 °C. The figure for `COc1ccc(C(C)(O)C(F)(F)F)c(CCO)c1` (stereo not drawn) is 110 to 111 °C; for `Oc1nc2c([nH]1)CCCCC2` it is 272 °C; for `Nc1cccc(OCc2nc3ccccc3s2)c1` it is 117 to 120 °C.

The molecule `O=[N+]([O-])c1ccc(OCc2ccccc2)cc1Cl` came in with a melting point of 82 to 84.5 °C. Next, `CN(C)S(=O)(=O)c1ccc2c(c1)C=C(C(=O)O)C(C(F)(F)F)O2` (stereo not drawn): 201 to 202 °C; `CNC(=O)Nc1cc(-c2ccc(S(C)(=O)=O)cc2)c(-c2ccc(F)cc2)s1`: 70 to 75 °C; `CC(=O)Nc1csc(-c2ccc3c(=O)n(CC(C)C)c(CNC(=O)OC(C)(C)C)c(-c4ccccc4)c3c2)n1`: 227 to 228 °C. Next, `Cc1[nH]cc2c(=O)n(-c3ccc(Cl)cc3)nc-2c1-c1cccc(NS(C)(=O)=O)c1`: 332 to 341 °C. Next, `Cc1c(C)c2c(c(C)c1N)CC(C)(CSCCO)O2` (stereo not drawn): 108 to 109 °C; `Cc1oc(-c2ccccc2)nc1COc1ccccc1CON=C(CCC(=O)O)c1ccccc1`: 116 to 117 °C; `COc1ccc2cc(-c3cnc(-c4cn(C)c5ccccc45)o3)ccc2c1`: 187 to 189 °C. In the case of `S=C1Cc2c([nH]c3ccc(Br)cc23)-c2ccccc2N1`, the melting point is > 330 °C.

As for `c1ccc2c(c1)-c1nccc3ccnc-2c13`, the melting point lay in the range of 152 to 153 °C. Next, `Cc1cc(C)c(C2C(=O)CC(CC3CCOC3)CC2=O)c(C)c1` (stereo not drawn): 62 to 64 °C.

`Cc1cc(F)cc2c1-c1ccc(F)cc1C21NC(=O)NC1=O` (stereo not drawn): the melting point is > 320 °C. On to `Cc1c(SCCCN2CCN(Cc3ccc(Cl)s3)CC2)ccnc1CS(=O)c1nc2ccccc2[nH]1` (stereo not drawn), for which the melting point was 54 to 58 °C. Next, `C=CCNc1cc(C)nc2cn[nH]c12`: 172 to 174 °C. `CC(C)(C)N1C(=O)c2cnc(-c3ccccc3)nc2N(C(=O)CCl)c2ccccc21`: the melting point lay in the range of 176 to 177 °C.

`CCNc1nc(Oc2ccccc2)nc2nc(-c3ccco3)nn12` displayed a melting point of 127 to 129 °C. In turn, `Cc1noc(NC(=O)N2CCN(c3nccc(-c4ccc(F)cc4F)n3)CC2)c1C` gave a melting point of 197 to 198 °C. The figure for `O=S1(=O)c2cccc3cccc(c23)N1CCN1CCC(CCn2ccc3ccccc32)CC1` is 152 °C.

`O=C1NCCN1Cc1ccc(Cl)cc1` gave a melting point of 164 to 166 °C. As to `CC(CC(=O)c1cccc(Cl)c1)C(=O)O` (stereo not drawn), the melting point was in the range of 100 to 102 °C. For `O=C(O)Cc1cnc(Cc2ccc(NC(=O)c3ccc(Cl)c(Cl)c3)cc2)n2ccnc12`, the melting point was in the range of 185 to 188 °C. Take `CC(C)C(NC(=O)N(C)Cc1ccccn1)C(=O)NC(Cc1ccccc1)C(O)C(Cc1ccccc1)NC(=O)C(NC(=O)N(C)Cc1ccccn1)C(C)C` (stereo not drawn): the melting point was 70 to 72 °C.

`CCOC(=O)c1ncoc1-c1cnc(Cl)c(Cl)c1` registered a melting point of 95 to 98 °C. The figure for `O=C(CCCl)Nc1ccc2c(c1NC(=O)CCCl)C(=O)c1ccccc1C2=O` is 179 to 180 °C. The figure for `N#CCCNC(=O)c1cncc(-c2cccc3nn(Cc4cccc(C(F)(F)F)c4)cc23)c1` is 192 to 193 °C; for `COC1=CC(=O)N(Cc2ncn(C(c3ccccc3)(c3ccccc3)c3ccccc3)c2C)CC1` it is 181 to 184 °C. Next, `CC(=O)C1=Cc2cc(Br)ccc2OC1`: 70 °C; `Cc1cccc(Cl)c1NC(=O)Nc1cc(NC(C)C)ncn1`: 233 °C. `Cc1ccc(-c2cnc(N)c([N+](=O)[O-])c2)cc1` yielded a melting point of 183 to 184 °C.

With `COc1ccc(NC(=O)c2ccc(Br)cc2)cc1N1CCN(C)CC1`, the melting point fell in the range of 158 to 160 °C. The figure for `O=C(Nc1ccc(Oc2ccnc(NC3CCC3)n2)c2ccccc12)c1cc(F)cc(N2CCOCC2)c1` is 110 to 112 °C; for `COC(=O)c1cc(C(C)=O)cs1` it is 94 to 96 °C. The figure for `O=C(O)C(OCc1ccc(-c2ccc(Cl)cc2)cc1)c1ccccc1` (stereo not drawn) is 119 to 121 °C. The figure for `CCCCC(=NNC(=O)c1ccccc1)c1ccncc1` is 142 °C; for `CC1OC(=O)N(c2nc(-c3ccc(C#N)cc3)cs2)C1(C)C` (stereo not drawn) it is 166 to 167 °C.

For the molecule `CCc1nc2c(c(C)c(C)n3nnnc23)n1CCOCCNS(C)(=O)=O`, the melting point lay within 216 to 218 °C. `CCOC(=O)COCCc1cc2cc(Cl)ccc2n1S(=O)(=O)c1ccccc1` displayed a melting point of 60 to 62 °C. The figure for `CCCCCCCS(=O)(=O)Oc1c(I)cc(I)cc1I` is 78 to 80 °C.

`CCC(C)Cn1c(=O)n(C)c(=O)c2c1nc(C)n2C(=O)OC` (stereo not drawn): the melting point was 110 to 112 °C. The figure for `CCOC(=O)C(C#N)=NOS(=O)(=O)c1ccc(C)cc1` is 84 to 87 °C; for `COc1ccccc1NC(=O)NCc1cccc2c1CN(C1CCC(=O)NC1=O)C2=O` (stereo not drawn) it is 187 to 189 °C.

In the case of `CC(c1oc2ccccc2c(=O)c1-c1cccc(F)c1)n1nc(-c2cc(O)cc(F)c2)c2c(N)ncnc21` (stereo not drawn), the melting point was 271 to 273 °C. Next, `Cc1ccc(NC(=O)c2cccc(N3CCOCC3)c2)cc1NC(=O)c1cccc(N(C)S(C)(=O)=O)c1`: 208 to 209 °C; `CCc1nn2c(N)c3c(nc2c1S(=O)(=O)c1ccccc1)CCC3`: > 230 °C; `CC(CCCC(C)(C)Cl)C1CC=C2C3=C(CCC21C)C1(C)CCC(O)C(C)(C)C1CC3` (stereo not drawn): 131 to 133 °C. The figure for `Cc1coc2c1C(=O)CC(c1ccccc1F)C2` (stereo not drawn) is 71 to 72 °C; for `O=C(O)Cc1c([N+](=O)[O-])ccc2c1O[C@@H](CNCc1ccccc1)CO2` it is 206 °C. Next, `CC(Oc1ccc(-c2cccc(NC(N)=O)c2)cc1)C(O)CCc1cccnc1` (stereo not drawn): 75 to 76 °C; `O=C(O)c1cn(C2CC2)c2cc(N3CCC4(C3)OCCO4)c(F)cc2c1=O`: 229 to 230 °C. `COC1=CC(=O)c2cc(O)ccc2C1=O` registered a melting point of 264 to 267 °C.

Usually melting point stands for the temperature, or range, at which the solid turns liquid.
